Tested on: MG63 osteosarcoma cells
Assay: In vitro MG63 osteosarcoma proliferation assay, Test (c)
Assay type: cell-based
Conditions: Homo sapiens, MG-63, BrdU, 72 hours, read-out: IC50 versus MG63 osteosarcoma proliferation
Experimental: This assay determined the ability of a test compound to inhibit the proliferation of MG63 osteosarcoma cells (ATCC CCL 1427):
MG63 cells were seeded at 1.5×10^3 cells per well into 96-well clear tissue culture-treated assay plates (Corning Life Sciences; Catalogue No. 3595) to which had been added 60 μl per well of test medium comprising DMEM without phenol red, 1% charcoal-stripped FCS and 2 mM glutamine and the cells were incubated overnight at 37° C. with 7.5% CO2.
Test compounds were solubilised in DMSO to provide a 10 mM stock solution. Aliquots of the stock solution were diluted with the test medium described above and 20 μl aliquots of each dilution were added to appropriate wells. Serial dilutions were made to give a range of test concentrations. […]
BrdU labelling reagent (Roche Diagnostics Ltd., Lewes, East Sussex, UK; Catalogue No. 647 229) was diluted by a factor of 1:100 in DMEM medium containing 1% charcoal stripped FCS and aliquots (10 μl) were added to each well to give a final concentration of 10 μM. […] Aqueous sulphuric acid (1M; 50 μl) was added to the appropriate wells to stop any further reaction and the absorbance of the wells was measured at 450 nm. The extent of inhibition of cellular proliferation at a range of concentrations of each test compound was determined and an anti-proliferative IC50 value was derived.

## COc1cc2ncnc(Oc3cnn(CC(=O)Nc4cccc5c4OCO5)c3)c2cc1OC [Example 2, N-(2,3-methylenedioxyphenyl)-2-[4-(6,7-dimethoxyquinazolin-4-yloxy)pyrazol-1-yl]acetamide]
  IC50: ~40 nM

Source: patent US20090036474A1, “Quinazoline derivatives for use against cancer” (priority 2004, published 2009)
